From patent publication US6974574B2, “Methods of inducing an HIV specific response using a Vpr-specific epitope” (The General Hospital Corporation, priority 2001, dated 2005)
Values joined by “and” are separate entries in the source; they are usually repeats but may differ in a detail not shown here. Equal values may be shown once.

Assays:
[1] = test system: PBMC (CD8+ T cells) of HIV-1 infected individuals; experiment: IFN-γ Elispot assay with PBMC and synthetic HIV-1 peptides; assay type: cell-based, human
Method: Peptides were added directly to the wells at a final concentration of 1×10^−5 molar. Cells were added to the wells at 50,000 to 100,000 cells per well. The plates were incubated at 37° C., 5% CO2 overnight (14-16 h) and then processed as described. IFN-γ producing cells were counted by direct visualization and are expressed as spot forming cells (SFC) per 10^6 cells. The number of specific IFN-γ secreting T-cells was calculated by subtracting the negative control value from the established SFC count. […] Responses ≧40 SFC per 10^6 input cells above background were considered positive. The positive control consisted of incubation of 100,000 PBMC with phytohaemagglutinin (PHA). […] Fine mapping of epitopes by Elispot assay was performed, using peptide truncations (e.g., as described in Altfield et al., 2000, J. Virol. 74:8541). 100,000 PBMC per well were incubated with concentrations from 10^−4 M to 10^−11 M of peptide overnight on the Elispot plate. All assays were run in duplicate. The optimal peptide was defined as the peptide that induced 50% maximal specific IFN-γ production of T-cells at the lowest peptide concentration.

[2] = test system: HIV; experiment: Level of CTL immune response elicited by peptide immunogen
[3] = test system: CD8+ T cells; experiment: Flow cytometric detection of antigen-induced intracellular IFN-γ; assay type: cell-based, human; conditions: subject AC-06
Method: CD8+ T cells were non-specifically expanded from PBMC over 10 days, using a bi-specific […]. Peptide-specific CD8+ T cell lines were subsequently isolated using a standard IFN-γ catching assay. After expansion 10-20×10^6 CD8+ T cells were incubated on 24-well-plates with 20 μM peptide and 1 ug/ml each of the mAbs anti-CD28 and anti-CD49d (Becton Dickinson) at 37° C., 5% CO2, for 6-8 hour. Cell were subsequently labeled with a bi-specific CD45/IFN-γ catching antibody and incubated for 45 min at 37° C., 5% CO2. After several washes, the IFN-γ producing cells were stained with a second IFN-γ-PE detection antibody and separated by anti-PE mAb labeled with magnetic beads (MACS, Miltenyi Biotech, Hamburg, Germany). The isolated cells were then expanded for 10 days using autologous irradiated feeders.
Intracellular cytokine staining assays were performed using known methods, e.g.,described by Pitcher et al., 1999, Nature Medicine 5:518 or Goulder et al, 2000, J. Exp. Med. 192:1819). […] Cells were then washed and analyzed on a FACSort Flowcytometer (Becton Dickinson Immunocytometry systems, San Jose, Calif.) using peridinin chlorophyl protein (PerCP), allophycocyanin (APC) and fluorescein isothiocyanate (FITC) as fluorescent parameters. […]

## vif-3: overlapping peptide (12-18mer) spanning the HIV-1 SF2 B clade Vif sequence (RIRTWKSLVK; Human immunodeficiency virus type 1)
[1]; individual 6003
  Magnitude of peptide-specific CD8+ T cell responses against Vif overlapping peptides, IFN-γ ELISPOT: 0 SFC/10^6 PMBC
[1]; individual 6007
  Magnitude of peptide-specific CD8+ T cell responses against Vif overlapping peptides, IFN-γ ELISPOT: 0 SFC/10^6 PMBC
[1]; individual 6009
  Magnitude of peptide-specific CD8+ T cell responses against Vif overlapping peptides, IFN-γ ELISPOT: 290 SFC/10^6 PMBC
[1]; individual AC-01
  Magnitude of peptide-specific CD8+ T cell responses against Vif overlapping peptides, IFN-γ ELISPOT: 0 SFC/10^6 PMBC
[1]; individual AC-04
  Magnitude of peptide-specific CD8+ T cell responses against Vif overlapping peptides, IFN-γ ELISPOT: 0 SFC/10^6 PMBC
[1]; individual AC-06
  Magnitude of peptide-specific CD8+ T cell responses against Vif overlapping peptides, IFN-γ ELISPOT: 680 SFC/10^6 PMBC
[1]; individual AC-07
  Magnitude of peptide-specific CD8+ T cell responses against Vif overlapping peptides, IFN-γ ELISPOT: 0 SFC/10^6 PMBC
[1]; individual AC-13
  Magnitude of peptide-specific CD8+ T cell responses against Vif overlapping peptides, IFN-γ ELISPOT: 0 SFC/10^6 PMBC
[1]; individual AC-27
  Magnitude of peptide-specific CD8+ T cell responses against Vif overlapping peptides, IFN-γ ELISPOT: 0 SFC/10^6 PMBC
[1]; individual AC-31
  Magnitude of peptide-specific CD8+ T cell responses against Vif overlapping peptides, IFN-γ ELISPOT: 0 SFC/10^6 PMBC
[1]; individual AC-36
  Magnitude of peptide-specific CD8+ T cell responses against Vif overlapping peptides, IFN-γ ELISPOT: 0 SFC/10^6 PMBC
[1]; individual AC-42
  Magnitude of peptide-specific CD8+ T cell responses against Vif overlapping peptides, IFN-γ ELISPOT: 0 SFC/10^6 PMBC
[1]; individual AC-43
  Magnitude of peptide-specific CD8+ T cell responses against Vif overlapping peptides, IFN-γ ELISPOT: 0 SFC/10^6 PMBC
[1]; individual AC-46
  Magnitude of peptide-specific CD8+ T cell responses against Vif overlapping peptides, IFN-γ ELISPOT: 0 SFC/10^6 PMBC
[1]; individual AC-59
  Magnitude of peptide-specific CD8+ T cell responses against Vif overlapping peptides, IFN-γ ELISPOT: 0 SFC/10^6 PMBC
[1]; individual AC-TZA
  Magnitude of peptide-specific CD8+ T cell responses against Vif overlapping peptides, IFN-γ ELISPOT: 0 SFC/10^6 PMBC
[1]; individual CMW
  Magnitude of peptide-specific CD8+ T cell responses against Vif overlapping peptides, IFN-γ ELISPOT: 0 SFC/10^6 PMBC
[1]; individual JMV
  Magnitude of peptide-specific CD8+ T cell responses against Vif overlapping peptides, IFN-γ ELISPOT: 0 SFC/10^6 PMBC
[1]; individual JRH
  Magnitude of peptide-specific CD8+ T cell responses against Vif overlapping peptides, IFN-γ ELISPOT: 430 SFC/10^6 PMBC
[1]; individual TMH#4
  Magnitude of peptide-specific CD8+ T cell responses against Vif overlapping peptides, IFN-γ ELISPOT: 0 SFC/10^6 PMBC

## LADQLIHLHY (Human immunodeficiency virus type 1)
[1]
  recognition (individuals with the corresponding HLA class I alleles that responded to the epitope): 2/5

## ISKKAKGWF (Human immunodeficiency virus type 1)
[1]
  recognition (individuals with the corresponding HLA class I alleles that responded to the epitope): 2/6

## HPRVSSEVHI (Human immunodeficiency virus type 1)
[1]
  recognition (individuals with the corresponding HLA class I alleles that responded to the epitope): 3/8

## AVRHFPRIW
[1]
  recognition (individuals with the corresponding HLA class I alleles that responded to the epitope): 4/6

## ALIRILQQL (Human immunodeficiency virus type 1)
[1]
  recognition (individuals with the corresponding HLA class I alleles that responded to the epitope): 8/24
[2]
  level of the immune response elicited, compared with SEQ ID NO:1: at least 1 log

## REPHNEWTL (Human immunodeficiency virus type 1)
[1]
  recognition (individuals with the corresponding HLA class I alleles that responded to the epitope): 1/1

## GPGHKARVL (Human immunodeficiency virus type 1)
[3]
  contribution to total HIV-1-specific CD8 responses: 32%
  percentage of CD8+ T cells specific for the epitope, intracellular IFN-γ: 5.6%

## RIRTWKSLVK (Human immunodeficiency virus type 1)
[1]
  recognition (individuals with the corresponding HLA class I alleles that responded to the epitope): 3/15

## FPRIWLHGL (Human immunodeficiency virus type 1)
[1]
  recognition (individuals with the corresponding HLA class I alleles that responded to the epitope): 2/2 and 4/8
[1]; AL9: HLA-A2, FL9: HLA-B7
  individuals expressing the HLA allele that targeted the epitope: 4/8

## THPRVSSEVHIPLG (Human immunodeficiency virus type 1) [vif-10]
[1]; individual 6003
  Magnitude of peptide-specific CD8+ T cell responses against Vif overlapping peptides, IFN-γ ELISPOT: 0 SFC/10^6 PMBC
[1]; individual 6007
  Magnitude of peptide-specific CD8+ T cell responses against Vif overlapping peptides, IFN-γ ELISPOT: 0 SFC/10^6 PMBC
[1]; individual 6009
  Magnitude of peptide-specific CD8+ T cell responses against Vif overlapping peptides, IFN-γ ELISPOT: 40 SFC/10^6 PMBC
[1]; individual AC-01
  Magnitude of peptide-specific CD8+ T cell responses against Vif overlapping peptides, IFN-γ ELISPOT: 0 SFC/10^6 PMBC
[1]; individual AC-04
  Magnitude of peptide-specific CD8+ T cell responses against Vif overlapping peptides, IFN-γ ELISPOT: 0 SFC/10^6 PMBC
[1]; individual AC-06
  Magnitude of peptide-specific CD8+ T cell responses against Vif overlapping peptides, IFN-γ ELISPOT: 11800 SFC/10^6 PMBC
[1]; individual AC-06, text
  magnitude of CTL response by Elispot: 1180 SFC/10^6 PBMC
[1]; individual AC-07
  Magnitude of peptide-specific CD8+ T cell responses against Vif overlapping peptides, IFN-γ ELISPOT: 0 SFC/10^6 PMBC
[1]; individual AC-13
  Magnitude of peptide-specific CD8+ T cell responses against Vif overlapping peptides, IFN-γ ELISPOT: 0 SFC/10^6 PMBC
[1]; individual AC-27
  Magnitude of peptide-specific CD8+ T cell responses against Vif overlapping peptides, IFN-γ ELISPOT: 0 SFC/10^6 PMBC
[1]; individual AC-31
  Magnitude of peptide-specific CD8+ T cell responses against Vif overlapping peptides, IFN-γ ELISPOT: 0 SFC/10^6 PMBC
[1]; individual AC-36
  Magnitude of peptide-specific CD8+ T cell responses against Vif overlapping peptides, IFN-γ ELISPOT: 0 SFC/10^6 PMBC
[1]; individual AC-42
  Magnitude of peptide-specific CD8+ T cell responses against Vif overlapping peptides, IFN-γ ELISPOT: 0 SFC/10^6 PMBC
[1]; individual AC-43
  Magnitude of peptide-specific CD8+ T cell responses against Vif overlapping peptides, IFN-γ ELISPOT: 0 SFC/10^6 PMBC
[1]; individual AC-46
  Magnitude of peptide-specific CD8+ T cell responses against Vif overlapping peptides, IFN-γ ELISPOT: 0 SFC/10^6 PMBC
[1]; individual AC-59
  Magnitude of peptide-specific CD8+ T cell responses against Vif overlapping peptides, IFN-γ ELISPOT: 840 SFC/10^6 PMBC
[1]; individual AC-TZA
  Magnitude of peptide-specific CD8+ T cell responses against Vif overlapping peptides, IFN-γ ELISPOT: 0 SFC/10^6 PMBC
[1]; individual CMW
  Magnitude of peptide-specific CD8+ T cell responses against Vif overlapping peptides, IFN-γ ELISPOT: 0 SFC/10^6 PMBC
[1]; individual JMV
  Magnitude of peptide-specific CD8+ T cell responses against Vif overlapping peptides, IFN-γ ELISPOT: 0 SFC/10^6 PMBC
[1]; individual JRH
  Magnitude of peptide-specific CD8+ T cell responses against Vif overlapping peptides, IFN-γ ELISPOT: 0 SFC/10^6 PMBC
[1]; individual TMH#4
  Magnitude of peptide-specific CD8+ T cell responses against Vif overlapping peptides, IFN-γ ELISPOT: 0 SFC/10^6 PMBC
